Data from patent US9643957B2, “Heterocyclic compounds having cholesterol 24-hydroxylase activity” (TAKEDA PHARMACEUTICAL COMPANY LIMITED, priority 2012, dated 2017).

Tests used:
human CH24H = target: T1, human CH24H (Homo sapiens, UniProt Q9Y6A2); experiment: Measurement of CH24H inhibitory activity (24-HC produced from [14C] cholesterol by human CH24H lysate); type: biochemical; conditions: 1 μM test compound, [14C] cholesterol 15 μM, 37° C. for 5 hr, read-out: Inhibitory Rate in 1 μM (%)
T1 construct: Using Full-Length Mammalian Gene Collection No. 4819975 (Invitrogen) as a template; made in house; host or cells: FreeStyle 293-F cells, transient transfection with pcDNA3.1(+)/hCH24H; lysate supernatant, not purified
In short: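 Human CH24H lysate from FreeStyle 293 cells was incubated with compound and 15 μM [14C]cholesterol in 50 mM potassium phosphate pH 7.4 with 0.1% BSA, for 5 h at 37 °C. The 24-HC formed was extracted, separated by silica TLC and quantified by radioactivity. % inhibition was calculated versus no-compound reactions.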

24-HC in the brain = experiment: Quantification test of 24-HC in mouse brain after repeated oral administration; type: in vivo; conditions: 30 mg/kg orally once a day for 3 days, female C57BL/6N mice, brain 24-HC at 16 hours after the third administration, relative to control group, read-out: Decreasing Rate in 30 mg/kg (%)
Procedure: Animals used were 6-week-old female C57BL/6N mice (3 mice/group). A test compound was suspended in a 0.5% aqueous methylcellulose [133-14255 WAKO] solution (1 mg/mL). The body weight of the mice was measured, and the solution was forcibly administered orally and repeatedly once a day for 3 days. At 16 hours after the third administration, half of the brain was harvested, and the amount of 24-HC was measured.
The wet weight of the brain was measured, and the brain was homogenized with 4-fold amount of saline. This solution was used as a brain extract. The 24-HC in the brain extract was extracted with an acetonitrile solution (98% acetonitrile, 1.98% methanol, 0.02% formic acid), and quantified by HPLC. The average value of 24-HC amount was calculated and the results are shown in relative values with the control group as 100%.

T1 sequence (Q9Y6A2 whole entry): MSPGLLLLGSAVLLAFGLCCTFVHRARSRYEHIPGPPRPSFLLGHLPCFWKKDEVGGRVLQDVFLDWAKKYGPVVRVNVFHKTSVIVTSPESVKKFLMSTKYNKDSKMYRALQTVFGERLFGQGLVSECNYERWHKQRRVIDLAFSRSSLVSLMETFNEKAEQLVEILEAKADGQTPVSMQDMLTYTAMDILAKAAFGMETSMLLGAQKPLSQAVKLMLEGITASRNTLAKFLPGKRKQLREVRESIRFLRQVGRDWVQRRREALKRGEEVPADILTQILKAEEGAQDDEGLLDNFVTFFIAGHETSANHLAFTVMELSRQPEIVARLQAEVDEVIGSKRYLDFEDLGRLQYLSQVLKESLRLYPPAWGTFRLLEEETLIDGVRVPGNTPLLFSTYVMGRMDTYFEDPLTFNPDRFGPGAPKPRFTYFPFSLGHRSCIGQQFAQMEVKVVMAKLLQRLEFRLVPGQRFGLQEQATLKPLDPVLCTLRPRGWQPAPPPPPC

| Compound | inhibition at 1 µM (human CH24H) | inhibition in vivo at 30 mg/kg (24-HC in the brain) |
| --- | --- | --- |
| Cc1cnn(-c2ccncc2N2CCC(C(=O)N3CC(F)(F)C[C@@H]3C#N)CC2)c1 [Example 130, (2R)-4,4-difluoro-1-((1-(4-(4-methyl-1H-pyrazol-1-yl)pyridin-3-yl)piperidin-4-yl)carbonyl)pyrrolidine-2-carbonitrile] | 93% | 54% |
| Cc1cnn(-c2ccncc2N2CCC(C(=O)N3CCC[C@]3(C)C#N)CC2)c1 [Example 127, (2R)-2-methyl-1-((1-(4-(4-methyl-1H-pyrazol-1-yl)pyridin-3-yl)piperidin-4-yl)carbonyl)pyrrolidine-2-carbonitrile] | 79% | 44% |
| Cc1cnn(-c2ccncc2N2CCC(C(=O)N3CCC[C@@H]3C(N)=O)CC2)c1 [Example 124, 1-((1-(4-(4-methyl-1H-pyrazol-1-yl)pyridin-3-yl)piperidin-4-yl)carbonyl)-D-prolinamide] | 81% | 59% |
| Cc1nnc(-c2ccncc2N2CCC(C(=O)N3CC(F)(F)C[C@@H]3C#N)CC2)s1 [Example 132, (2R)-4,4-difluoro-1-((1-(4-(5-methyl-1,3,4-thiadiazol-2-yl)pyridin-3-yl)piperidin-4-yl)carbonyl)pyrrolidine-2-carbonitrile] | 87% | 65% |
| N#C[C@H]1CCCN1C(=O)C1CCN(c2cnccc2-n2cc(Cl)cn2)CC1 [Example 33, (2R)-1-((1-(4-(4-chloro-1H-pyrazol-1-yl)pyridin-3-yl)piperidin-4-yl)carbonyl)pyrrolidine-2-carbonitrile] | 96% | 49% |
| N#C[C@H]1CCCN1C(=O)C1CCN(c2cnccc2-c2ccccn2)CC1 [Example 142, (2R)-1-((1-(2,4′-bipyridine-3′-yl)piperidin-4-yl)carbonyl)pyrrolidine-2-carbonitrile] | 93% | 69% |
| Cc1cnc(-c2ccncc2N2CCC(C(=O)N3CCC[C@@H]3C#N)CC2)s1 [Example 129, (2R)-1-((1-(4-(5-methyl-1,3-thiazol-2-yl)pyridin-3-yl)piperidin-4-yl)carbonyl)pyrrolidine-2-carbonitrile] | 82% | 44% |
| COC[C@H]1CCCN1C(=O)C1CCN(c2cnccc2-c2nnc(C)s2)CC1 [Example 133, ((2R)-2-(methoxymethyl)pyrrolidin-1-yl)(1-(4-(5-methyl-1,3,4-thiadiazol-2-yl)pyridin-3-yl)piperidin-4-yl)methanone] | 87% | 70% |
| O=C(NC1CCOCC1)C1CCN(c2cnccc2-n2cc(Cl)cn2)CC1 [Example 24, 1-(4-(4-chloro-1H-pyrazol-1-yl)pyridin-3-yl)-N-(tetrahydro-2H-pyran-4-yl)piperidine-4-carboxamide] | 96% |  |
| CO[C@@H]1CCN(C(=O)C2CCN(c3cncnc3-c3ccc(F)cc3)CC2)C1 [Example 304, (1-(4-(4-fluorophenyl)pyrimidin-5-yl)piperidin-4-yl)((3R)-3-methoxypyrrolidin-1-yl)methanone] | 86% |  |
| N#C[C@H]1CC(F)(F)CN1C(=O)C1CCN(c2cnccc2-c2ccccn2)CC1 [Example 143, (2R)-1-((1-(2,4′-bipyridin-3′-yl)piperidin-4-yl)carbonyl)-4,4-difluoropyrrolidine-2-carbonitrile] | 98% |  |
| O=C(NCc1ccccc1)N1CCN(c2cncnc2-c2ccccc2)CC1 [Example 175, N-benzyl-4-(4-phenylpyrimidin-5-yl)piperazine-1-carboxamide] | 95% |  |
| Cc1cn(-c2ccncc2N2CCC(C(=O)NC3CC3)CC2)nc1C [Example 200, N-cyclopropyl-1-(4-(3,4-dimethyl-1H-pyrazol-1-yl)pyridin-3-yl)piperidine-4-carboxamide] | 88% |  |
| Cc1nnc(-c2ccncc2N2CCC(F)(C(=O)N3CCC[C@@H]3C#N)CC2)s1 [Example 131, (2R)-1-((4-fluoro-1-(4-(5-methyl-1,3,4-thiadiazol-2-yl)pyridin-3-yl)piperidin-4-yl)carbonyl)pyrrolidine-2-carbonitrile] | 87% |  |
| CC1(C)CCCN1C(=O)C1CCN(c2cnccc2-n2cc(Cl)cn2)CC1 [Example 26, (1-(4-(4-chloro-1H-pyrazol-1-yl)pyridin-3-yl)piperidin-4-yl)(2,2-dimethylpyrrolidin-1-yl)methanone] | 98% |  |
| C[C@@H]1CN(c2cncnc2-c2ccccc2)CCN1C(=O)OCc1ccccc1 [Example 158, benzyl (2R)-2-methyl-4-(4-phenylpyrimidin-5-yl)piperazine-1-carboxylate] | 85% |  |
| Cc1cnn(-c2ccncc2N2[C@@H]3CC[C@H]2C[C@H](C(=O)N(C)C)C3)c1 [Example 13, (3-exo)-N,N-dimethyl-8-(4-(4-methyl-1H-pyrazol-1-yl)pyridin-3-yl)-8-azabicyclo[3.2.1]octane-3-carboxamide] | 89% |  |
